ChEMBL document CHEMBL5365447, “Pronucleotides of 2',3'-Dideoxy-2',3'-Didehydrothymidine as Potent Anti-HIV Compounds” (J Med Chem, 2023)
Activity calls are given as the source filed them. No cut-off for these calls is given here.

Tests used:
[1] = system: Human immunodeficiency virus; assay: Substrate activity at HIV reverse transcriptase measured after 4 hrs by electrophoresis based primer extension assay
[2] = system: Human immunodeficiency virus 2; assay: Antiviral activity against HIV-2 ROD infected in thymidine kinase-deficient human CEM cells assessed as inhibition of virus-induced cytopathic effect incubated for 4 to 5 days by light microscopic analysis; format: functional, organism-based; conditions: Human immunodeficiency virus 2, ROD, CCRF-CEM
[3] = biological target: T1, DNA polymerase alpha catalytic subunit (Homo sapiens) (UniProt P09884); assay: Substrate activity at human DNA polymerase alpha measured after 4 hrs by electrophoresis based primer extension assay
T1 sequence (whole entry): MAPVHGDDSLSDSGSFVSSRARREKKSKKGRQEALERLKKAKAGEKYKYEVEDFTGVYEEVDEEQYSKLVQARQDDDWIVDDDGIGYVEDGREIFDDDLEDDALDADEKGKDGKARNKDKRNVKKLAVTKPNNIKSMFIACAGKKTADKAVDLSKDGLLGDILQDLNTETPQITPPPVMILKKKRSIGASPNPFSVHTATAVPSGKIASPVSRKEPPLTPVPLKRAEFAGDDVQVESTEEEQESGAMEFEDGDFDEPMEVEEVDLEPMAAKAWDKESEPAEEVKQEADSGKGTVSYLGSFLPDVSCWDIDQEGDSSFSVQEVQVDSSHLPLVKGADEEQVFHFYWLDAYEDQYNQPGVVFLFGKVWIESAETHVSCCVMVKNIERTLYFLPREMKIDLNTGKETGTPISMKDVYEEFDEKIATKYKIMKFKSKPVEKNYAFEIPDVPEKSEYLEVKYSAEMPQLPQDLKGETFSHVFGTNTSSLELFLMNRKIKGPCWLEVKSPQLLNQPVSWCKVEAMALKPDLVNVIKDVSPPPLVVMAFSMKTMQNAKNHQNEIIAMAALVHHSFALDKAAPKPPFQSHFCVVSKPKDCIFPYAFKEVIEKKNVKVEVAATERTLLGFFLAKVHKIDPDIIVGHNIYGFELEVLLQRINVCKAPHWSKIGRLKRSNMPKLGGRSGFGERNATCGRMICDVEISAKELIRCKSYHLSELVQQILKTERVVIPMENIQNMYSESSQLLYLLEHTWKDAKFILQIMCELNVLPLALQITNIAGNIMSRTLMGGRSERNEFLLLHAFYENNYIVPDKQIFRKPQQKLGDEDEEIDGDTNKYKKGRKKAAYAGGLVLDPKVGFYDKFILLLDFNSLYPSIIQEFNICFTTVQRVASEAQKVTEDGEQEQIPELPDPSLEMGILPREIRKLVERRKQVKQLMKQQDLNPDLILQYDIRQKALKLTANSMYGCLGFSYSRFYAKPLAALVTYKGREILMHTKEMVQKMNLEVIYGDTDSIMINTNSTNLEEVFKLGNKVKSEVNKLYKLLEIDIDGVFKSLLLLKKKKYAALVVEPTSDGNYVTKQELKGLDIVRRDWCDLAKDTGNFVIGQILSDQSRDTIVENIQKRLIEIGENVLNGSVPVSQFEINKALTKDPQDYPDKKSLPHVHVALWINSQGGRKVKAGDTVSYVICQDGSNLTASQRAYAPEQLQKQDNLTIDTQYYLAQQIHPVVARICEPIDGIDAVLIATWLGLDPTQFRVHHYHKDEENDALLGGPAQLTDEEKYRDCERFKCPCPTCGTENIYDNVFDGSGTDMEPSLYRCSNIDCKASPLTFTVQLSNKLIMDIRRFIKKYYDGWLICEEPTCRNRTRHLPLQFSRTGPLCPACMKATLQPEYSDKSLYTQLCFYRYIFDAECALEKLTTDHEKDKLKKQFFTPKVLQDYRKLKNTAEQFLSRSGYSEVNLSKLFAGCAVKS

[4] = Chemical stability of the compound in phosphate buffer saline assessed as half life at pH 7.3 by HPLC analysis; format: physicochemical; conditions: phosphate buffered saline
[5] = Cytotoxicity against human CEM cells assessed as reduction in cell viability incubated for 4 to 5 days by light microscopic analysis; format: toxicity, cell-based; conditions: CEM cells (CCRF-CEM), time 4-5 day
[6] = Prodrug conversion in pH 7.3 phosphate buffer assessed as ((2S,5R)-5-(5-methyl-2,4-dioxo-3,4-dihydropyrimidin-1(2H)-yl)-2,5-dihydrofuran-2-yl)methyl tri-hydrogen diphosphate formation by measuring half life in presence of pig liver esterase by HPLC analysis; format: ADME
[7] = Prodrug conversion in human CEM/0 cell extract assessed as metabolite formation by measuring half life by HPLC analysis; format: ADME; conditions: ccrf-cem
[8] = Retention time of the compound by HPLC analysis; format: physicochemical
[9] = biological target: T2, DNA polymerase subunit gamma-1 (Homo sapiens) (UniProt P54098); assay: Substrate activity at human DNA polymerase gamma measured after 4 hrs by electrophoresis based primer extension assay
T2 sequence (whole entry): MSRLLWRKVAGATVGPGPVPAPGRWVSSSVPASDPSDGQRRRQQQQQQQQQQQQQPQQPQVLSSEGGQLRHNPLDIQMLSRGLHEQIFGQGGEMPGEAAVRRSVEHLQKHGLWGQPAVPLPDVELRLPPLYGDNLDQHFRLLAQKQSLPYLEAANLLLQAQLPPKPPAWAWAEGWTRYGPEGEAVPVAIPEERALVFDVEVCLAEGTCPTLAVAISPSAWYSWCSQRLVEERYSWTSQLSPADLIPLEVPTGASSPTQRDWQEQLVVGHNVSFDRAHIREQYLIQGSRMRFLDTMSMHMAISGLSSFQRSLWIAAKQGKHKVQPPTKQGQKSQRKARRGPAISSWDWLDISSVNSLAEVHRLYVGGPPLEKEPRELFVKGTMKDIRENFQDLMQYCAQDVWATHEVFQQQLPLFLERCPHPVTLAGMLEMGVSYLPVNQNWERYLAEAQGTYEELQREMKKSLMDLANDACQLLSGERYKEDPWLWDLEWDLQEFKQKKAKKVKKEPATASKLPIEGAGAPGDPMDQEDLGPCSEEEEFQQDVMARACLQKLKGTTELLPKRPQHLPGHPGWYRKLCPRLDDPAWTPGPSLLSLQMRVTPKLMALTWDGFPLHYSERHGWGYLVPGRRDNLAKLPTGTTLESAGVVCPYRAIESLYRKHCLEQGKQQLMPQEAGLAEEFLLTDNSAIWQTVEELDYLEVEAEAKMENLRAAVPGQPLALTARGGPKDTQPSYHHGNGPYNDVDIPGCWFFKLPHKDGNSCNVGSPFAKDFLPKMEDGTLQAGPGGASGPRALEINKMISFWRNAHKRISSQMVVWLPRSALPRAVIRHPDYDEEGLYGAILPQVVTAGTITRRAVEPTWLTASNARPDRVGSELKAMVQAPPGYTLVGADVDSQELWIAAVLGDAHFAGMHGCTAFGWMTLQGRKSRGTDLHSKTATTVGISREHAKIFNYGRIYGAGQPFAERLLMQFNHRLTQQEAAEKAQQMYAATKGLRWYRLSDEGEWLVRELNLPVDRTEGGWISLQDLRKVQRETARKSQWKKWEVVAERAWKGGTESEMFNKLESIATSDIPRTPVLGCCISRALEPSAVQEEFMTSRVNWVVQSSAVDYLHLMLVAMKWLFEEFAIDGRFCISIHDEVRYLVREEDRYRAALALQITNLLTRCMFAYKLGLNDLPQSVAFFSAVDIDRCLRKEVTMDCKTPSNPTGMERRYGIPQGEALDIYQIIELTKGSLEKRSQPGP

[10] = biological target: DNA polymerase beta (Homo sapiens) (UniProt P06746); assay: Substrate activity at human DNA polymerase beta measured after 4 hrs by electrophoresis based primer extension assay
[11] = Selectivity index, ratio of CC50 for human CEM cells to EC50 for HIV-2 ROD infected in thymidine kinase-deficient human CEM cells; format: toxicity; conditions: read-out: Ratio CC50/EC50
[12] = Prodrug conversion in human CEM/0 cell extract assessed as ((2S,5R)-5-(5-methyl-2,4-dioxo-3,4-dihydropyrimidin-1(2H)-yl)-2,5-dihydrofuran-2-yl)methyl tri-hydrogen diphosphate formation by HPLC analysis; format: ADME; conditions: ccrf-cem
[13] = system: Human immunodeficiency virus 1; assay: Antiviral activity against HIV-1 HE infected in wild-type human CEM/0 cells assessed as inhibition of virus-induced cytopathic effect incubated for 4 to 5 days by light microscopic analysis; format: functional, organism-based; conditions: Human immunodeficiency virus 1, HE, CCRF-CEM
[14] = system: Human immunodeficiency virus 2; assay: Antiviral activity against HIV-2 ROD infected in wild-type human CEM/0 cells assessed as inhibition of virus-induced cytopathic effect incubated for 4 to 5 days by light microscopic analysis; format: functional, organism-based; conditions: Human immunodeficiency virus 2, ROD, CCRF-CEM
[15] = Prodrug conversion in pH 7.3 phosphate buffer assessed as metabolite formation by measuring half life in presence of pig liver esterase by HPLC analysis; format: ADME; conditions: isolated protein

SMILES | Activity [1] | EC50 [2] [µM] | Activity [3] | half-life [4] [days] | CC50 [5] [µM] | t1/2 [6] [h] | t1/2 [7] [h] | Retention_time [8] [min] | Activity [9] | Activity [10] | selectivity ratio [11] | Drug metabolism [12] | EC50 [13] [µM] | EC50 [14] [µM] | Drug metabolism [7] | Drug metabolism [15] | t1/2 [15] [h]
Cc1cn([C@H]2C=C[C@@H](COP(=O)(O)OP(=O)(O)O)O2)c(=O)[nH]c1=O | Active |  |  |  |  |  |  |  |  |  |  |  |  |  |  |  | 
CCCCOP(=O)(O)OP(=O)(O)OC[C@@H]1C=C[C@H](n2cc(C)c(=O)[nH]c2=O)O1.N.N |  | 43.2 | inactive | > 125 | > 100 | > 150 | > 30 | 9.4 | inactive | inactive | > 2 | Metabolite_Notdetected | 0.72 | 0.42 |  |  | 
COP(=O)(O)OP(=O)(O)OC[C@@H]1C=C[C@H](n2cc(C)c(=O)[nH]c2=O)O1.N.N |  | 40.4 | inactive | > 125 | > 100 | > 150 |  | 8.9 | inactive | inactive | > 2 | Metabolite_Notdetected | 0.52 | 0.18 | Metabolite_Notdetected |  | 
CCCCCCCCCCCCCCCCCCOP(=O)(O)OP(=O)(O)OC[C@@H]1C=C[C@H](n2cc(C)c(=O)[nH]c2=O)O1.N.N | inactive | 0.001 | inactive | > 125 | > 100 | > 150 | > 13 | 15.1 | inactive | inactive | > 62500 | Metabolite_Notdetected | 0.33 | 0.068 |  |  | 
CCCCC(=O)Oc1ccc(COP(=O)(OC)OP(=O)(O)OC[C@@H]2C=C[C@H](n3cc(C)c(=O)[nH]c3=O)O2)cc1.N (stereo partly drawn) |  | 8.95 |  | 3.5 | > 100 |  |  | 11.3 |  |  | > 11 |  | 0.43 | 0.41 | Metabolite_Notdetected | Metabolite_Notdetected | 
CCCCCCCCCCCCCCCCCCP(=O)(OCc1ccc(OC(=O)CCCC)cc1)OP(=O)(O)OC[C@@H]1C=C[C@H](n2cc(C)c(=O)[nH]c2=O)O1.N (stereo partly drawn) |  | 0.002 |  | > 83.3 | 14.6 |  | > 8 | 20 |  |  | 7290 |  | 0.044 | 0.042 |  |  | 0.25
CCCCOP(=O)(OCc1ccc(OC(=O)CCCC)cc1)OP(=O)(O)OC[C@@H]1C=C[C@H](n2cc(C)c(=O)[nH]c2=O)O1.N (stereo partly drawn) |  | 19.2 |  | 5.46 | > 100 |  | 0.36 | 12.5 |  |  | > 5 |  | 0.44 | 0.17 |  |  | < 0.01
CCCCCCCCCCCC(=O)Oc1ccc(COP(=O)(OCCCC)OP(=O)(O)OC[C@@H]2C=C[C@H](n3cc(C)c(=O)[nH]c3=O)O2)cc1.N (stereo partly drawn) |  | 0.75 |  | 11.6 | 83.1 |  |  | 16.6 |  |  | 111 |  | 0.23 | 0.053 | Metabolite_Notdetected | Metabolite_Notdetected | 
CCCCCCCCCCCCP(=O)(OCc1ccc(OC(=O)CCCCCCCCCCC)cc1)OP(=O)(O)OC[C@@H]1C=C[C@H](n2cc(C)c(=O)[nH]c2=O)O1.N (stereo partly drawn) |  | 0.01 |  | > 83.3 | 41.1 |  | 3 | 20.6 |  |  | 4110 |  | 0.13 | 0.06 |  |  | 0.27
CCCCCCCCCCCCCCCCCCOP(=O)(OCc1ccc(OC(=O)CCCC)cc1)OP(=O)(O)OC[C@@H]1C=C[C@H](n2cc(C)c(=O)[nH]c2=O)O1.N (stereo partly drawn) |  | 0.016 |  | 16.9 | 50.6 |  | > 7 | 20.3 |  |  | 3170 |  | 0.059 | 0.036 |  |  | 0.18
CCCCCCCCCCCCOP(=O)(O)OP(=O)(O)OC[C@@H]1C=C[C@H](n2cc(C)c(=O)[nH]c2=O)O1.N.N |  | 11 | inactive | > 125 | > 100 | > 150 | > 30 | 12.6 | inactive | inactive | > 9 | Metabolite_Notdetected | 0.56 | 0.19 |  |  | 
